In patent US9187424B1, “Aryl dihydropyridinones and piperidinone MGAT2 inhibitors” (Bristol-Myers Squibb Company, priority 2011, dated 2015):

Tests used:
[1] = target: T1, Human MGAT-2 (Homo sapiens (Human), UniProt Q3SYC2); assay: MGAT SPA Assay; format: biochemical; settings: membranes from Sf9 cells expressing recombinant human MGAT2; 2-monooleoylglycerol and [3H]-oleoyl-CoA;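 further: inhibition scaled between DMSO vehicle as full MGAT2 activity and membranes of uninfected Sf9 cells as blank, IC50 fitted by logistic curve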
[2] = target: T1, Human MGAT-2; assay: MGAT LCMS Assay (human MGAT-2); format: biochemical; settings: human MGAT-2 membranes expressed in Sf9 cells; 2-oleoylglycerol and oleoyl-Coenzyme A; read-out: h-MGAT2 IC50 (nM) LCMS Assay;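 further: diolein product quantified by LC/MS with positive APCI, expressed as peak area ratio versus an internal standard, and this ratio used to derive IC50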

T1 sequence (Q3SYC2 whole entry): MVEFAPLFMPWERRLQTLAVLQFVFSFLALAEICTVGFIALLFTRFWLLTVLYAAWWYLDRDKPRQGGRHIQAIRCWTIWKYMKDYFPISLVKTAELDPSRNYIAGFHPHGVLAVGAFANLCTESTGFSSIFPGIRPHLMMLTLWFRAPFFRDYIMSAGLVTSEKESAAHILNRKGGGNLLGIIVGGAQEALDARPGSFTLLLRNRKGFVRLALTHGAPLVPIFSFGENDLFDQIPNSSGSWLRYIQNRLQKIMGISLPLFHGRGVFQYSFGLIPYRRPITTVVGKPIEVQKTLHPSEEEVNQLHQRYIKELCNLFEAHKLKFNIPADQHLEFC

IC50 [1] [nM]	IC50 [2] [nM]	SMILES
1800		Cc1ccc(C2=C(C#N)C(=O)NC(c3ccc(Br)cc3)(C(F)(F)F)C2)cc1 (stereo not drawn) [Example 3, 6-(4-Bromophenyl)-2-oxo-4-p-tolyl-6-(trifluoromethyl)-1,2,5,6-tetrahydropyridine-3-carbonitrile]
5870		Cc1ccc(C2=C(C#N)C(=O)NC(c3ccc(O)cc3)(C(F)(F)F)C2)cc1 (stereo not drawn) [Example 4, 6-(4-Hydroxyphenyl)-2-oxo-4-p-tolyl-6-(trifluoromethyl)-1,2,5,6-tetrahydro-pyridine-3-carbonitrile]
818		CCOc1ccc(-c2ccc(C3(C(F)(F)F)CC(c4ccc(C)cc4)=C(C#N)C(=O)N3)cc2)cn1 (stereo not drawn) [Example 7, 6-(4-(6-Ethoxypyridin-3-yl)phenyl)-2-oxo-4-p-tolyl-6-(trifluoromethyl)-1,2,5,6-tetrahydropyridine-3-carbonitrile]
1930		CC1(c2ccc(N3CCOCC3)cc2)CC(c2ccc(N3CCOCC3)cc2)=C(C#N)C(=O)N1 (stereo not drawn) [Example 17]
5760		Cc1ccc(C2=C(C#N)C(=O)NC(C)(c3ccc(C)c(C)c3)C2)cc1C (stereo not drawn) [Example 18]
2900		CCOc1ccc(C2=C(C#N)C(=O)NC(C)(c3ccc(OCC)cc3)C2)cc1 (stereo not drawn) [Example 19]
3460		CC(C)(C)c1ccc(C2=C(C#N)C(=O)NC(C)(c3ccc(C(C)(C)C)cc3)C2)cc1 (stereo not drawn) [Example 20]
913		Cc1ccc(C2=C(c3nnn[nH]3)C(=O)NC(C)(c3ccc(C)cc3)C2)cc1 (stereo not drawn) [Example 21]
1290		Cc1ccc(C2=C(C#N)C(=O)NC(C)(c3ccccc3)C2)cc1 (stereo not drawn) [Example 23]
1730		Cc1ccc(C2=C(C#N)C(=O)NC(c3ccc(Cl)cc3)(C(F)(F)F)C2)cc1 (stereo not drawn) [Example 24]
4570		Cc1ccc(C2=C(C#N)C(=O)NC(c3cccc(F)c3)(C(F)(F)F)C2)cc1 (stereo not drawn) [Example 25]
6430		Cc1ccc(C2=C(C#N)C(=O)NC(c3ccc(F)c(F)c3)(C(F)(F)F)C2)cc1 (stereo not drawn) [Example 26]
2520		Cc1ccc(C2=C(C#N)C(=O)NC(c3ccc(F)cc3)(C(F)(F)F)C2)cc1 (stereo not drawn) [Example 27]
1510		Cc1ccc(C2=C(C#N)C(=O)NC(c3ccc(N(C)C)cc3)(C(F)(F)F)C2)cc1 (stereo not drawn) [Example 31]
9960		Cc1ccc(C2=C(C#N)C(=O)NC(c3cccc(Br)c3)(C(F)(F)F)C2)cc1 (stereo not drawn) [Example 32]
656	126	Cc1ccc(C2=C(C#N)C(=O)NC(c3ccc(OCCOC(C)(C)C)cc3)(C(F)(F)F)C2)cc1 (stereo not drawn) [Example 34]
396	57	Cc1ccc(C2=C(C#N)C(=O)NC(c3ccc(OCCC4CCCC4)cc3)(C(F)(F)F)C2)cc1 (stereo not drawn) [Example 36]
2140		COc1ccc(C2(C(F)(F)F)CC(c3ccc(C)cc3)=C(c3nnn[nH]3)C(=O)N2)cc1 (stereo not drawn) [Example 38]
170	15	COc1ccc(C2(C(F)(F)F)CC(c3ccc(C)cc3)=C(C(=O)Nc3ccc(F)cc3)C(=O)N2)cc1 (stereo not drawn) [Example 41]
1460		Cc1ccc(C2=C(C#N)C(=O)NC(c3ccc(Oc4ccccc4)nc3)(C(F)(F)F)C2)cc1 (stereo not drawn) [Example 44]
871		Cc1ccc(C2=C(C#N)C(=O)NC(c3ccc(Oc4ncccn4)cc3)(C(F)(F)F)C2)cc1 (stereo not drawn) [Example 46]
756		Cc1ccc(C2=C(C#N)C(=O)NC(c3ccc(OCc4ccccc4)cc3)(C(F)(F)F)C2)cc1 (stereo not drawn) [Example 47]
226	7	Cc1ccc(C2=C(C(=O)Nc3ccc(F)cc3)C(=O)NC(c3ccc(Oc4ccccc4)cc3)(C(F)(F)F)C2)cc1 (stereo not drawn) [Example 48]
127	64	Cc1ccc(C2=C(C(=O)Nc3ccc(F)cc3)C(=O)NC(c3ccc(Oc4ccncn4)cc3)(C(F)(F)F)C2)cc1 (stereo not drawn) [Example 49]

IC50 [1] [nM]	IC50 [2] [nM]	SMILES
242	95	Cc1ccc(C2=C(C(=O)Nc3ccc(F)cc3)C(=O)NC(c3ccc(-c4cnccn4)cc3)(C(F)(F)F)C2)cc1 (stereo not drawn) [Example 50]
63	13	CCCCCc1ccc(C2(C(F)(F)F)CC(c3ccc(C)cc3)=C(C(=O)Nc3ccc(F)cc3)C(=O)N2)cc1 (stereo not drawn) [Example 51]
477	99	Cc1ccc(C2=C(C(=O)Nc3ccc(F)cc3)C(=O)NC(c3ccc(Oc4ncccn4)cc3)(C(F)(F)F)C2)cc1 (stereo not drawn) [Example 52]
258	20	Cc1ccc(C2=C(C(=O)Nc3ccc(F)cc3)C(=O)NC(c3ccc(OCc4ccccc4)cc3)(C(F)(F)F)C2)cc1 (stereo not drawn) [Example 54]
846	20	CCCCCNC(=O)C1=C(c2ccc(C)cc2)CC(c2ccc(OCCCC(F)(F)F)cc2)(C(F)(F)F)NC1=O (stereo not drawn) [Example 55]
6550		Cc1ccc(C2=C(C(=O)NCc3ccccc3)C(=O)NC(c3ccc(OCCCC(F)(F)F)cc3)(C(F)(F)F)C2)cc1 (stereo not drawn) [Example 56]
441	12	Cc1ccc(C2=C(C(=O)Nc3ccccc3Cl)C(=O)NC(c3ccc(OCCCC(F)(F)F)cc3)(C(F)(F)F)C2)cc1 (stereo not drawn) [Example 60]
709		Cc1ccc(C2=C(C(=O)Nc3cccc(Cl)c3)C(=O)NC(c3ccc(OCCCC(F)(F)F)cc3)(C(F)(F)F)C2)cc1 (stereo not drawn) [Example 61]
156	24	Cc1ccc(C2=C(C(=O)Nc3ccc(Cl)cc3)C(=O)NC(c3ccc(OCCCC(F)(F)F)cc3)(C(F)(F)F)C2)cc1 (stereo not drawn) [Example 62]
761	280	COc1cccc(C2=C(C#N)C(=O)NC(c3ccc(OCCCC(F)(F)F)cc3)(C(F)(F)F)C2)c1 (stereo not drawn) [Example 64]
7520	1280	N#CC1=C(c2cccc(Cl)c2)CC(c2ccc(OCCCC(F)(F)F)cc2)(C(F)(F)F)NC1=O (stereo not drawn) [Example 68]
9230	983	N#CC1=C(c2cccc(C#N)c2)CC(c2ccc(OCCCC(F)(F)F)cc2)(C(F)(F)F)NC1=O (stereo not drawn) [Example 69]
3400		Cc1ccc(C2=CC(=O)NC(c3ccc(OCCCC(F)(F)F)cc3)(C(F)(F)F)C2)cc1 (stereo not drawn) [Example 70]
684	15	N#CC1=C(c2ccc3ccccc3c2)CC(c2ccc(OCCCC(F)(F)F)cc2)(C(F)(F)F)NC1=O (stereo not drawn) [Example 73]
873	209	N#CC1=C(c2ccc(C(F)(F)F)cc2)CC(c2ccc(OCCCC(F)(F)F)cc2)(C(F)(F)F)NC1=O (stereo not drawn) [Example 75]
55	4	COc1ccc(C2=C(C#N)C(=O)NC(c3ccc(OCCCC(F)(F)F)cc3)(C(F)(F)F)C2)c(F)c1 (stereo not drawn) [Example 81]
133	2	Cc1ccc(NC(=O)C2=C(c3ccc(C)cc3)CC(c3ccc(OCCCC(F)(F)F)cc3)(C(F)(F)F)NC2=O)cc1 (stereo not drawn) [Example 82]
115	2	COc1ccc(NC(=O)C2=C(c3ccc(C)cc3)CC(c3ccc(OCCCC(F)(F)F)cc3)(C(F)(F)F)NC2=O)cc1F (stereo not drawn) [Example 84]
1460	7	Cc1ccc(C2=C(C(=O)Nc3ccc(C)c(F)c3)C(=O)NC(c3ccc(OCCCC(F)(F)F)cc3)(C(F)(F)F)C2)cc1 (stereo not drawn) [Example 85]
201	1	Cc1ccc(C2=C(C(=O)Nc3ccc(C(F)(F)F)cc3)C(=O)NC(c3ccc(OCCCC(F)(F)F)cc3)(C(F)(F)F)C2)cc1 (stereo not drawn) [Example 86]
	3	CCCCCCCC#CC1(C(F)(F)F)CC(c2ccc(C)cc2)=C(NC(=O)c2nnn[nH]2)C(=O)N1 (stereo not drawn) [Example 311]
	4	CCCCCCCC#CC1(C(F)(F)F)CC(c2ccc(OC(F)F)cc2)=C(NC(=O)CS(C)(=O)=O)C(=O)N1 (stereo not drawn) [Example 313]

SMILES	IC50 [1] [nM]	IC50 [2] [nM]
COc1ccc(C2=C[C@](c3ccc(OCCCC(F)(F)F)cc3)(C(F)(F)F)NC(=O)C2(F)C#N)cc1 (single isomer, unassigned) [Example 15-1, 3-Fluoro-4-(4-methoxyphenyl)-2-oxo-6-(4-(4,4,4-trifluorobutoxyl)phenyl)-6-(trifluoromethyl)-1,2,3,6-tetrahydropyridine-3-carbonitrile]	3310	12
COc1ccc(NC(=O)C2C(=O)N[C@@](c3ccc(OCCCC(F)(F)F)cc3)(C(F)(F)F)CC2c2ccc(C)cc2)cc1 (single isomer, unassigned) [Example 16-1, N-(4-Methoxyphenyl)-2-oxo-4-p-tolyl-6-(4-(4,4,4-trifluorobutoxyl)phenyl)-6-(trifluoromethyl)piperidine-3-carboxamide]	25	7
COc1ccc(NC(=O)C2C(=O)N[C@@](c3ccc(OCCCC(F)(F)F)cc3)(C(F)(F)F)CC2c2ccc(C)cc2)cc1 (single isomer, unassigned) [Example 16-2, N-(4-Methoxyphenyl)-2-oxo-4-p-tolyl-6-(4-(4,4,4-trifluorobutoxyl)phenyl)-6-(trifluoromethyl)piperidine-3-carboxamide]	8430	416
Cc1ccc(C2=C(c3nnc(C(F)(F)F)o3)C(=O)NC(c3ccc(OCCCC(F)(F)F)cc3)(C(F)(F)F)C2)cc1 (stereo not drawn) [Example 10, 4-p-Tolyl-6-(4-(4,4,4-trifluorobutoxyl)phenyl)-6-(trifluoromethyl)-3-(5-(trifluoromethyl)-1,3,4-oxadiazol-2-yl)-5,6-dihydropyridin-2(1H)-one]	2720	138
Cc1ccc(C2=C(C(=O)Nc3ccc(OC(F)(F)F)cc3)C(=O)NC(C)(c3ccc(OCCCC(F)(F)F)cc3)C2)cc1 (stereo not drawn) [Example 11, 6-Methyl-2-oxo-4-p-tolyl-6-(4-(4,4,4-trifluorobutoxyl)phenyl)-N-(4-(trifluoromethoxy)-phenyl)-1,2,5,6-tetrahydropyridine-3-carboxamide]	48	13
Cc1ccc(C2=C([N+](=O)[O-])C(=O)NC(c3ccc(OCCCC(F)(F)F)cc3)(C(F)(F)F)C2)cc1 (stereo not drawn) [Example 13, 3-Nitro-4-p-tolyl-6-(4-(4,4,4-trifluorobutoxyl)phenyl)-6-(trifluoromethyl)-5,6-dihydropyridin-2(1H)-one]	3330	35
